Data from US10703764B2, “Benzopiperazine compositions as BET bromodomain inhibitors” (FORMA Therapeutics, Inc., priority 2013, dated 2020).
Where two headings read alike, the source gives them in different places.

Assays:
BRD4 BD1 = biological target: T1, BRD4 BD1 (Homo sapiens, UniProt O60885); test: AlphaScreen binding assay, BRD4 Bromodomain 1
T1 construct: made in house
Outline: (§1)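 Compound dilution series were mixed with His-tagged BRD4 bromodomain and biotinylated tetra-acetylated H4 (1-21) peptide at pH 7.3 (BD1 and peptide at 50 nM, BD2 and peptide at 100 nM). Donor and acceptor beads were then added, and plates were equilibrated at least 1 h before reading. IC50 values were fitted with a four-parameter logistic model.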

BRD4 BD2 = biological target: T2, BRD4 BD2 (Homo sapiens, UniProt O60885); test: AlphaScreen binding assay, BRD4 Bromodomain 2
T2 construct: made in house
Outline: as §1

MV4-11 cells = test: Oncology cell growth assay (3-day proliferation, CellTiter-Glo); assay type: cell-based; settings: Homo sapiens, AML cell line MV4-11, 72 hours, compounds grouped by IC50 range, read-out: MV4-11 IC50 (inhibition of proliferation, gIC50)
Outline: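 MV4-11 AML cells (RPMI 1640, 10% FBS) plated at 3000 cells/well and exposed 72 h to compound at final 10 to 0.0045 μM (3-fold series). Viability read by CellTiter-Glo luminescence; gIC50 from four-parameter logistic fit between DMSO control and no-cell background.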

Structure (SMILES) | IC50 (BRD4 BD1) | IC50 (BRD4 BD2) | IC50 (MV4-11 cells; MV4-11, 72 h) | IC50 (MV4-11 cells)
CC(=O)N1c2ccc(-c3ccc(S(=O)(=O)n4cccn4)cc3)cc2N(C(=O)OC2CCOCC2)C[C@@H]1C [Example I-1260] | 0.1 to 1 µM | 0.05 to 0.5 µM | > 0.5 µM | –
CNS(=O)(=O)c1ccc(-c2ccc3c(c2)N(C(=O)OC2CCCCC2)C[C@H](C)N3C(C)=O)cc1 [Example I-1261] | 0.1 to 1 µM | 0.05 to 0.5 µM | 0.1 to 0.5 µM | –
CNS(=O)(=O)c1ccc(-c2ccc3c(c2)N(C(=O)OC2CCOCC2)C[C@H](C)N3C(C)=O)cc1 [Example I-1262] | 0.1 to 1 µM | 0.05 to 0.5 µM | 0.1 to 0.5 µM | –
CC(=O)N1c2ccc(-c3ccc(S(=O)(=O)N(C)C)cc3)cc2N(C(=O)OC2CCCCC2)C[C@@H]1C [Example I-1263] | 0.1 to 1 µM | 0.05 to 0.5 µM | 0.1 to 0.5 µM | –
CC(=O)N1c2ccc(-c3ccc(S(=O)(=O)N(C)C)cc3)cc2N(C(=O)OC2CCOCC2)C[C@@H]1C [Example I-1264] | 0.1 to 1 µM | 0.05 to 0.5 µM | 0.1 to 0.5 µM | –
CC(=O)N1c2ccc(-c3ccc(S(=O)(=O)NC(C)(C)C)cc3)cc2N(C(=O)OC2CCCCC2)C[C@@H]1C [Example I-1265] | 0.1 to 1 µM | 0.05 to 0.5 µM | 0.1 to 0.5 µM | –
CC(=O)N1c2ccc(-c3ccc(S(=O)(=O)NC(C)(C)C)cc3)cc2N(C(=O)OC2CCOCC2)C[C@@H]1C [Example I-1266] | 0.1 to 1 µM | 0.05 to 0.5 µM | 0.1 to 0.5 µM | –
CC(=O)N1c2ccc(-c3ccc(N4CCCC4=O)cc3)cc2N(C(=O)OC2CCCCC2)C[C@@H]1C [Example I-1267] | 0.1 to 1 µM | 0.05 to 0.5 µM | 0.1 to 0.5 µM | –
CC(=O)N1c2ccc(-c3ccc(N4CCCC4=O)cc3)cc2N(C(=O)OC2CCOCC2)C[C@@H]1C [Example I-1268] | 0.1 to 1 µM | 0.05 to 0.5 µM | 0.1 to 0.5 µM | –
CCS(=O)(=O)Nc1ccc(-c2ccc3c(c2)N(C(=O)OC2CCCCC2)C[C@H](C)N3C(C)=O)cc1 [Example I-1269] | 0.1 to 1 µM | 0.05 to 0.5 µM | < 0.1 µM | –
CCS(=O)(=O)Nc1ccc(-c2ccc3c(c2)N(C(=O)OC2CCOCC2)C[C@H](C)N3C(C)=O)cc1 [Example I-1270] | 0.1 to 1 µM | 0.05 to 0.5 µM | 0.1 to 0.5 µM | –
COc1ccc(-c2ccc3c(c2)N(C(=O)OC2CCCCC2)C[C@H](C)N3C(C)=O)cc1NS(C)(=O)=O [Example I-1271] | 0.1 to 1 µM | 0.05 to 0.5 µM | < 0.1 µM | –
COc1ccc(-c2ccc3c(c2)N(C(=O)OC2CCOCC2)C[C@H](C)N3C(C)=O)cc1NS(C)(=O)=O [Example I-1272] | 0.1 to 1 µM | 0.05 to 0.5 µM | 0.1 to 0.5 µM | –
CC(=O)N1c2ccc(-c3cccc(NS(=O)(=O)N(C)C)c3)cc2N(C(=O)OC2CCCCC2)C[C@@H]1C [Example I-1273] | 0.1 to 1 µM | 0.05 to 0.5 µM | 0.1 to 0.5 µM | –
CC(=O)N1c2ccc(-c3cccc(NS(=O)(=O)N(C)C)c3)cc2N(C(=O)OC2CCOCC2)C[C@@H]1C [Example I-1274] | 0.1 to 1 µM | 0.05 to 0.5 µM | 0.1 to 0.5 µM | –
CC(=O)N1c2ccc(-c3cnn(C(C)(C)CO)c3)cc2N(C(=O)OC(C)C)C[C@@H]1C [Example I-1275] | 0.1 to 1 µM | < 0.05 µM | 0.1 to 0.5 µM | –
CC(=O)N1c2ccc(-c3cnn(CCS(C)(=O)=O)c3)cc2N(C(=O)Oc2cccnc2)C[C@@H]1C [Example I-1279] | 0.1 to 1 µM | 0.05 to 0.5 µM | 0.1 to 0.5 µM | –
CC(=O)N1c2ccc(-c3cnn(CCO)c3)cc2N(C(=O)Oc2cccnc2)C[C@@H]1C [Example I-1281] | 0.1 to 1 µM | 0.05 to 0.5 µM | 0.1 to 0.5 µM | –
CC(=O)N1c2ccc(-c3cnn(C(C)(C)CO)c3)cc2N(C(=O)Oc2cccnc2)C[C@@H]1C [Example I-1284] | 0.1 to 1 µM | 0.05 to 0.5 µM | 0.1 to 0.5 µM | –
CC(=O)N1c2ccc(-c3ccc(N4CCCS4(=O)=O)cc3)cc2N(C(=O)Oc2cccnc2)C[C@@H]1C [Example I-1286] | 0.1 to 1 µM | 0.05 to 0.5 µM | 0.1 to 0.5 µM | –
CC(=O)N1c2ccc(-c3ccc(N(C)S(C)(=O)=O)cc3)cc2N(C(=O)Oc2cccnc2)C[C@@H]1C [Example I-1292] | 0.1 to 1 µM | 0.05 to 0.5 µM | 0.1 to 0.5 µM | –
CC(=O)N1c2ccc(-c3cnn(C4CNC4)c3)cc2N(C(=O)Oc2cccnc2)C[C@@H]1C [Example I-1294] | 0.1 to 1 µM | 0.05 to 0.5 µM | – | > 0.5 µM
CC(=O)N1c2ccc(-c3cnn(C4CCNCC4)c3)cc2N(C(=O)Oc2ccccn2)C[C@@H]1C [Example I-1332] | 0.1 to 1 µM | < 0.05 µM | – | < 0.1 µM

Further lines, with some results ahead:

IC50 (BRD4 BD1) | IC50 (BRD4 BD2) | IC50 (MV4-11 cells; MV4-11, 72 h) | Structure (SMILES) | IC50 (MV4-11 cells)
1 to 10 µM | 0.05 to 0.5 µM | > 0.5 µM | CC(=O)N1c2ccc(-c3ccc(S(N)(=O)=O)c(F)c3)cc2N(C(=O)C2CC2)C[C@@H]1C [Example I-1297] | –
1 to 10 µM | 0.05 to 0.5 µM | > 0.5 µM | CC(=O)N1c2ccc(-c3ccc(S(N)(=O)=O)c(F)c3)cc2N(C(=O)OC(C)C)C[C@@H]1C [Example I-1298] | –
0.1 to 1 µM | 0.05 to 0.5 µM | 0.1 to 0.5 µM | CC(=O)N1c2ccc(-c3ccc(S(=O)(=O)N(C)C)c(C)c3)cc2N(C(=O)OC(C)C)C[C@@H]1C [Example I-1299] | –
0.1 to 1 µM | 0.05 to 0.5 µM | > 0.5 µM | CC(=O)N1c2ccc(-c3ccc(S(=O)(=O)N(C)C)c(C)c3)cc2N(C(=O)C2CC2)C[C@@H]1C [Example I-1300] | –
< 0.1 µM | < 0.05 µM | < 0.1 µM | CC(=O)N1c2ccc(-c3cnn(C4CCOCC4)c3)cc2N(C(=O)OC2CCCCC2)C[C@@H]1C [Example I-1301] | –
0.1 to 1 µM | < 0.05 µM | 0.1 to 0.5 µM | CC(=O)N1c2ccc(-c3cnn(C4CCOCC4)c3)cc2N(C(=O)C2CC2)C[C@@H]1C [Example I-1302] | –
0.1 to 1 µM | 0.05 to 0.5 µM | < 0.1 µM | CC(=O)N1c2ccc(-c3cnn(C4CCNCC4)c3)cc2N(C(=O)OC2CCCCC2)C[C@@H]1C [Example I-1303] | –
< 0.1 µM | < 0.05 µM | < 0.1 µM | CC(=O)N1c2ccc(-c3cnn(C4CNC4)c3)cc2N(C(=O)OC2CCCCC2)C[C@@H]1C [Example I-1304] | –
1 to 10 µM | < 0.05 µM | > 0.5 µM | CC(=O)N1c2ccc(-c3cnn(C4CS(=O)(=O)C4)c3)cc2N(C(=O)C2CC2)C[C@@H]1C [Example I-1305] | –
0.1 to 1 µM | 0.05 to 0.5 µM | > 0.5 µM | CC(=O)N1c2ccc(-c3cnn(C4CS(=O)(=O)C4)c3)cc2N(C(=O)OC(C)C)C[C@@H]1C [Example I-1306] | –
0.1 to 1 µM | < 0.05 µM | 0.1 to 0.5 µM | CC(=O)N1c2ccc(-c3cnn(C4CS(=O)(=O)C4)c3)cc2N(C(=O)OC2CCCC2)C[C@@H]1C [Example I-1307] | –
0.1 to 1 µM | < 0.05 µM | 0.1 to 0.5 µM | CC(=O)N1c2ccc(-c3cnn(C4CS(=O)(=O)C4)c3)cc2N(C(=O)OC2CCCCC2)C[C@@H]1C [Example I-1308] | –
0.1 to 1 µM | 0.05 to 0.5 µM | > 0.5 µM | CC(=O)N1c2ccc(-c3cnn(C4CCCS(=O)(=O)C4)c3)cc2N(C(=O)C2CC2)C[C@@H]1C (stereo partly drawn) [Example I-1310] | –
0.1 to 1 µM | 0.05 to 0.5 µM | 0.1 to 0.5 µM | CC(=O)N1c2ccc(-c3cnn(C4CCCS(=O)(=O)C4)c3)cc2N(C(=O)OC(C)C)C[C@@H]1C (stereo partly drawn) [Example I-1311] | –
0.1 to 1 µM | < 0.05 µM | 0.1 to 0.5 µM | CC(=O)N1c2ccc(-c3cnn(C4CCCS(=O)(=O)C4)c3)cc2N(C(=O)OC2CCCCC2)C[C@@H]1C (stereo partly drawn) [Example I-1312] | –
0.1 to 1 µM | 0.05 to 0.5 µM | 0.1 to 0.5 µM | CC(=O)N1c2ccc(-c3ccc(NS(C)(=O)=O)cc3)cc2N(C(=O)Oc2ccccn2)C[C@@H]1C [Example I-1316] | –
0.1 to 1 µM | < 0.05 µM | < 0.1 µM | CC(=O)N1c2ccc(-c3cnn(C4CC4)c3)cc2N(C(=O)Oc2ccccn2)C[C@@H]1C [Example I-1322] | –
0.1 to 1 µM | < 0.05 µM | 0.1 to 0.5 µM | COC(=O)N1c2ccc(-c3cnn(C4CC4)c3)cc2N(C(=O)Oc2ccccn2)C[C@@H]1C [Example I-1323] | –
0.1 to 1 µM | < 0.05 µM | 0.1 to 0.5 µM | CC(=O)N1c2ccc(-c3ccc(N4CCCS4(=O)=O)cc3)cc2N(C(=O)Oc2ccccn2)C[C@@H]1C [Example I-1324] | –
0.1 to 1 µM | 0.05 to 0.5 µM | 0.1 to 0.5 µM | CC(=O)N1c2ccc(-c3cnn(CCC#N)c3)cc2N(C(=O)Oc2ccccn2)C[C@@H]1C [Example I-1326] | –
0.1 to 1 µM | 0.05 to 0.5 µM | 0.1 to 0.5 µM | CC(=O)N1c2ccc(-c3ccc4c(c3)CCN4S(C)(=O)=O)cc2N(C(=O)Oc2ccccn2)C[C@@H]1C [Example I-1328] | –
0.1 to 1 µM | 0.05 to 0.5 µM | 0.1 to 0.5 µM | CC(=O)N1c2ccc(-c3ccc(N(C)S(C)(=O)=O)cc3)cc2N(C(=O)Oc2ccccn2)C[C@@H]1C [Example I-1330] | –
0.1 to 1 µM | 0.05 to 0.5 µM | 0.1 to 0.5 µM | CC(=O)N1c2ccc(-c3cnn(CCO)c3)cc2N(C(=O)Oc2ccccn2)C[C@@H]1C [Example I-1334] | –
